# “Also recorded” adds a separate entry of the source.
# Key:
# [1] = tested on: pSTAT3 in C6-ObRb cells; experiment: Immunofluorescent staining of pSTAT3 in C6-ObRb cells; type: cell-based, rat C6 cells, mouse ObRb; conditions: for cytosolic pSTAT3 signal with kinase inhibitor: AG490 1 µM or LY294002 50 µM
# Method: (§1) Rat C6 glioma cells were cultured in Dulbecco’s Modified Eagle Medium/F12 (DMEM/F12) supplemented with 10% FBS, sodium bicarbonate (1.2 g/L), and 1% penicillin/streptomycin antibiotics at 37 °C in 5% CO2. The full-length mouse leptin receptor (ObRb) in pcDNA3.1 vector was kindly provided by Dr. Christian Bjørbaek (BIDMC, Harvard Medical School, Boston, MA, USA) and transfected using Lipofectamine 2000. Subsequently, the cells were cultured in medium containing 500 μg/mL G418 for cell selection.
# […] Cells were treatment with AG490 (1 μM) or LY294002 (50 μM) 15 min prior to the leptin stimulation until the time of fixation. These cells were fixed in 4% phosphate-buffered paraformaldehyde for 15 min and washed three times with PBS(−). The fixed samples were then incubated for 2 h at room temperature in 10% donkey serum dissolved in 0.1% Triton-X PBS(−). Next, samples were incubated with 1:100 affinity-purified rabbit phospho-STAT3 (pTyr^705) dissolved in 5% donkey serum PBS(−) for 24 h at 4 °C. After three 20-min PBS(−) rinses, samples were incubated in 1:400 Cy3-conjugated donkey anti-rabbit IgG for 2 h at room temperature. Finally, samples were rinsed with PBS(−) (four 15-min rinses on an orbital shaker) and mounted using Vectashield containing 4′,6-diamidino-2-phenylindole (DAPI).
# (§2) Images were acquired using a confocal laser-scanning microscope (Olympus FV1000 or Nikon A1R MP plus) with a laser diode (405 nm), argon laser (488 nm), and helium neon laser ([…]). The nuclear immunofluorescent intensity (8-bit depth) was analyzed using Photoshop CS 6 software.
# [2] = tested on: wild-type C6 cells; experiment: Ca2+ imaging (Fura-2), leptin and CCK-8s signalling interaction in wild-type C6 cells; type: cell-based, rat
# Method: as §1
# C6 cells plated on 35 mm plastic dishes were gently rinsed with buffered salt solution (BSS) consisting of 130 mM NaCl, 5.4 mM KCl, 2 mM CaCl2, 1 mM MgCl2, 5.5 mM D-glucose, and 10 mM HEPES/NaOH (pH 7.4), and incubated in BSS supplemented with 6 µM Fura-2 AM (Dojindo Laboratories, Kumamoto, Japan) for 30 min in a CO2 incubator. Prior to photometry, the cells were rinsed again with BSS, incubated at 37°C for 15 min, and then continuously perfused with BSS at 34°C at a flow rate of 3 mL/min. Fluorescence images were obtained using an upright microscope (Axioplan2; Carl Zeiss, Thornwood, NY, USA) with a water-immersion objective (Achroplan×20 NA0.5w; Carl Zeiss). The wavelength of the excitation UV light (340 nm or 380 nm pulse; 250 msec) was switched using a filter wheel (Lambda 10-2; Sutter Instruments, Novato, CA, USA). The UV light was generated by a full spectrum 300W Xenon bulb (Lambda LS; Sutter Instruments), conducted to the microscope through a liquid light guide. The pair of fluorescent images was processed using a band-pass filter (485–515 nm) and exposed to a multiple format cooled CCD camera (CoolSnap-fx; Photometrics, Tucson, AZ, USA) at 6-sec intervals. The filter wheel and the CCD camera were controlled using digital imaging software (MetaFluor ver. 6.2; Japan Molecular Devices, Tokyo, Japan). The background fluorescence was also subtracted using the software.
# During image acquisition, leptin (PeproTech, Rocky Hill, NJ, USA), CCK-4 (Peptide Institute, Inc., Osaka, Japan), CCK-8s (Sigma-Aldrich, St. Louis, MO, USA), AG490 (Calbiochem, San Diego, CA), LY294002 (Calbiochem), LY225910 (R&D Systems, Minneapolis, MN, USA), LGM (LKT Laboratories Inc., St. Paul, MN, USA), and ATP (Sigma-Aldrich) were applied by switching the perfusate. The magnitude of Ca^2+ responses was determined by peak area analysis using Origin 5.0 software (OriginLab, Northampton, MA, USA).
# [3] = tested on: c-Fos and pSTAT3 in the ARC; experiment: Nuclear c-Fos and pSTAT3 in ARC after i.p. LGM; type: in vivo, rat; conditions: LGM 10 mg/kg i.p., 3 h, after RF, versus saline
# Method: (§3) To investigate the cellular consequences underlying the above behavioral responses, the different groups of rats that received RF were killed 3-h after the LGM (10 mg/kg) or saline injections. Subsequently, nuclear pSTAT3-ir and c-Fos-ir were visualized in the […] by immunohistochemistry. An astrocyte marker (glial fibrillary acidic protein, GFAP) was counterstained as a landmark of ARC because ARC is the astrocyte-rich ventral neuronal nucleus (Fig. 8A). […]
# as §2
# (§4) Male rats aged 2–3 months were individually housed in originally designed cylindrical chambers (30 cm ϕ, H30 cm). […] Because the bottom of the pellet server was placed 22 cm above the floor, purposeful food access behavior, but not general locomotor activities, was counted using this system. The ON/OFF signals from the sensor were fed into a laptop computer through a photo-coupler isolated digital I/O card (Contec Inc. PIO-16/16L) and automatically counted at 3-min intervals by software written by M.I.
# [4] = tested on: CCK-1 receptor; experiment: Food access frequency after i.p. LGM following 1-h restricted feeding; type: in vivo, rat; conditions: LGM 10 mg/kg i.p., 3 h before re-feeding; n = 5–6 per group; p < 0.05
# Method: Male rats aged 2–3 months were individually housed in originally designed cylindrical chambers (30 cm ϕ, H30 cm). Food was given ad libitum from slits of stainless pellet server placed 22 cm above the floor. During the RF, rats were fed with fatty food paste composed of 50% nutrient commixture chow powder, 20% soybean oil, and 30% water on a glass dish. Following removal of the dish, sterilized saline (1 ml/kg body weight) were i.p. injected. Leftover food paste was weighed after RF to calculate daily intake. Rats were acclimatized to this environment for 4 days. On day 5 of RF, saline or LGM (2 or 10 mg/kg body weight) dissolved in saline was injected. Three hours after the drug injection, rats were re-fed with regular chow in a previously setup pellet server. A touch sensing probe (Elekit PS-306) was connected to the pellet server. Because the bottom of the pellet server was placed 22 cm above the floor, purposeful food access behavior, but not general locomotor activities, was counted using this system. The ON/OFF signals from the sensor were fed into a laptop computer through a photo-coupler isolated digital I/O card (Contec Inc. PIO-16/16L) and automatically counted at 3-min intervals by software written by M.I.
# [5] = tested on: VMN cells; experiment: Ca2+ imaging in rat VMN slices; type: cell-based; conditions: LGM 1 µM; leptin 1–1,000 nM; p < 0.01 two-way ANOVA
# [6] = tested on: c-Fos and pSTAT3 in the VMN; experiment: Nuclear c-Fos and pSTAT3 in VMN after i.p. LGM; type: in vivo, rat; conditions: LGM 10 mg/kg i.p., 3 h, after RF, versus saline
# Method: as §3, §2, §4
# [7] = tested on: CCK-2 receptor (C6 cells); experiment: Ca2+ imaging (Fura-2), CCK-2 antagonism added to LGM in C6 cells; type: cell-based, rat; conditions: LY225910 100 nM additional to LGM 100 nM; CCK-8s 10 nM; p < 0.01
# Method: as §1
# (§5) C6 cells plated on 35 mm plastic dishes were gently rinsed with buffered salt solution (BSS) consisting of 130 mM NaCl, 5.4 mM KCl, 2 mM CaCl2, 1 mM MgCl2, 5.5 mM D-glucose, and 10 mM HEPES/NaOH (pH 7.4), and incubated in BSS supplemented with 6 µM Fura-2 AM (Dojindo Laboratories, Kumamoto, Japan) for 30 min in a CO2 incubator. Prior to photometry, the cells were rinsed again with BSS, incubated at 37°C for 15 min, and then continuously perfused with BSS at 34°C at a flow rate of 3 mL/min. Fluorescence images were obtained using an upright microscope (Axioplan2; Carl Zeiss, Thornwood, NY, USA) with a water-immersion objective (Achroplan×20 NA0.5w; Carl Zeiss). The wavelength of the excitation UV light (340 nm or 380 nm pulse; 250 msec) was switched using a filter wheel (Lambda 10-2; Sutter Instruments, Novato, CA, USA). […] The background fluorescence was also subtracted using the software. […]
# [8] = tested on: CCK-2 receptor (C6 cells); experiment: Ca2+ imaging (Fura-2), CCK-2 receptor agonist response in C6 cells; type: cell-based, rat; conditions: CCK-4 100 nM; n = 35/three dishes; Fura-2, 34°C, BSS pH 7.4
# Method: as §1, §5
# [9] = tested on: meal frequency / meal size; conditions: CCK; cited from earlier work
# Source text: Although CCK and leptin have been commonly described as satiety controlling peptides, their differential roles have also been highlighted. […] Among the wide variety of intracellular signalling machineries linked to ObRb, it is still uncertain which pathway(s) is/are linked to what type of satiety controls. pSTAT3-ir is used as a genera ...
# [10] = tested on: Zucker fa/fa rats lacking functional leptin receptors; conditions: cited from earlier work
# Source text: (§6) Also, the effect of CCK on satiety control is attenuated in Zucker fa/fa rats lacking functional leptin receptors. In addition, other evidence implicated that leptin-mediated satiety-controlling systems may strongly interact with CCK systems[18],[50]–[54]. For example, c-Fos expression in oxytocin neurons in the hypothalamic paraventricular nucleus is elevated by leptin administration, and these neurons have axons tha ...
# [11] = tested on: rats; conditions: sub-threshold CCK and leptin, individually no effect on feeding; cited from earlier work
# Source text: as §6
# [12] = tested on: mice; conditions: sub-threshold CCK and leptin, individually no effect on feeding; cited from earlier work
# Source text: as §6
compound,measurement,setting,value
N#C/C(=C/c1ccc(O)c(O)c1)C(=O)NCc1ccccc1 [AG490],nuclear pSTAT3-ir with JAK inhibitor,"[1]; AG490 1 µM from 15 min prior to leptin stimulation until fixation, 30 images/three dishes, p < 0.01",significantly reduced nuclear pSTAT3-ir below the level of un-stimulated controls; also recorded: blocked leptin-induced nuclear pSTAT3 elevation
same,cytosolic pSTAT3 signal with kinase inhibitor,[1],cytosolic pSTAT3 signal was not elevated
same,effect of JAK inhibitor on leptin amplification of CCK-8s-induced Ca2+ mobilization,"[2]; AG490 1 μM, 10 min, leptin pre-treatment, CCK-8s, n = 48/three dishes",leptin failed to amplify the CCK-8s-induced Ca^2+ mobilization; also recorded: significantly reduced leptin action for CCK-8s-induced Ca^2+ mobilization
Nc1ncnc2c1ncn2[C@@H]1O[C@H](COP(=O)(O)OP(=O)(O)OP(=O)(O)O)[C@@H](O)[C@H]1O [ATP],"Ca2+ mobilization, positive control",[2]; ATP 100 µM at the end of experiment,High Ca^2+ mobilization
"CCCCCN(CCCCC)C(=O)C(CCC(=O)O)NC(=O)c1ccc(Cl)c(Cl)c1 (stereo not shown) [LGM, lorglumide]","number of cells displaying c-Fos-ir, ARC",[3],failed to modulate the number of cells displaying c-Fos-ir
same,"number of cells displaying pSTAT3-ir, ARC","[3]; 14 images in four rats, p < 0.01",increased number of cells displaying pSTAT3-ir
same,food access frequency at the onset of re-feeding relative to saline control,[4],1.8 times
same,effect of CCK-1 antagonist on leptin-induced Ca2+ responses,[5],reduced leptin-induced Ca^2+ responses
same,"number of cells displaying c-Fos-ir, VMN","[6]; 18 images in four rats, p < 0.05",significantly decreased the number of cells displaying c-Fos-ir
same,"number of cells displaying pSTAT3-ir, VMN",[6]; P < 0.05,increased number of cells displaying pSTAT3-ir
CC(C)Oc1cccc(-n2c(CCc3c[nH]c4ccc(Br)cc34)nc3ccccc3c2=O)c1 [LY225910],reduction of CCK-8s-induced Ca2+ transients,[7],almost completely reduced
O=c1cc(N2CCOCC2)oc2c(-c3ccccc3)cccc12 [LY294002],cytosolic pSTAT3 signal with kinase inhibitor,[1],cytosolic pSTAT3 signal was not elevated
same,nuclear pSTAT3-ir with PI3K inhibitor,"[1]; LY294002 50 µM from 15 min prior to leptin stimulation until fixation, 30 images/three dishes, p < 0.01",significantly reduced nuclear pSTAT3-ir below the level of un-stimulated controls; also recorded: blocked leptin-induced nuclear pSTAT3 elevation
same,effect of PI3K inhibitor on (leptin-amplified) CCK-8s-induced Ca2+ mobilization,"[2]; LY294002 50 µM, 10 min, leptin pre-treatment, CCK-8s, n = 45/three dishes",significantly inhibited CCK-8s-induced Ca^2+ mobilization; also recorded: significantly reduced leptin action for CCK-8s-induced Ca^2+ mobilization
CCK-4,C6 cells displaying Ca2+ transients,[8],approximately 20%
cholecystokinin [CCK],meal frequency,[9],reduce meal frequency
same,effect of CCK on satiety control in Zucker fa/fa rats,[10],attenuated
same,"food intake, co-administration with leptin",[11],dramatically reduced food intake
same,"food intake, co-administration with leptin",[12],dramatically reduced food intake

# From PMC7371863, “Intracellular interplay between cholecystokinin and leptin signalling for satiety control in rats” (Scientific Reports, 2020)
